Measurements taken from the supplement of paper PMC10307832.

What was measured:
Assay in all cases: relative viability (nuclei count vs DMSO), 5 days (fraction); higher = more cells survive
NCI-H322M = system: NCI-H322M
Method in brief: (§1)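 Lung cancer cell lines in 1536-well plates got either a single drug or a fixed anchor-drug dose together with five library-drug doses (not always all listed) in √10 steps, by pin tool, on the day after seeding. Nuclei were counted after 5 days, and relative viability is the treated-to-vehicle ratio of nuclei counts. Values are medians of duplicate plates.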

ChaGo-K-1 = system: ChaGo-K-1
Method in brief: as §1

HOP-62 = system: HOP-62
Method in brief: as §1

NCI-H358 = system: NCI-H358
Method in brief: as §1

NCI-H3122 = system: NCI-H3122
Method in brief: as §1

NCI-H1915 = system: NCI-H1915
Method in brief: as §1

NCI-H2126 = system: NCI-H2126
Method in brief: as §1

NCI-H2023 = system: NCI-H2023
Method in brief: as §1

NCI-H1666 = system: NCI-H1666
Method in brief: as §1

UMC-11 = system: UMC-11
Method in brief: as §1

EPLC-272H = system: EPLC-272H
Method in brief: as §1

NCI-H1975 = system: NCI-H1975
Method in brief: as §1

ABC-1 = system: ABC-1
Method in brief: as §1

COR-L 105 = system: COR-L 105
Method in brief: as §1

EMC-BAC-2 = system: EMC-BAC-2
Method in brief: as §1

NCI-H1755 = system: NCI-H1755
Method in brief: as §1

CAL-12T = system: CAL-12T
Method in brief: as §1

NCI-H441 = system: NCI-H441
Method in brief: as §1

NCI-H2085 = system: NCI-H2085
Method in brief: as §1

LXF-289 = system: LXF-289
Method in brief: as §1

HCC-15 = system: HCC-15
Method in brief: as §1

Cc1sc2c(c1C)C(c1ccc(Cl)cc1)=N[C@@H](CC(=O)OC(C)(C)C)c1nnc(C)n1-2 [JQ1] + CCNC(=O)c1noc(-c2cc(C(C)C)c(O)cc2O)c1-c1ccc(CN2CCOCC2)cc1 [Luminespib] (partner 0.01 µM)
relative viability (NCI-H322M; first compound 0.04 µM): 0.797
relative viability (NCI-H322M; first compound 0.1265 µM): 0.879
relative viability (NCI-H322M; first compound 0.4 µM): 0.599
relative viability (NCI-H322M; first compound 1.265 µM): 0.383
relative viability (NCI-H322M; first compound 4 µM): 0.395
relative viability (ChaGo-K-1; first compound 0.04 µM): 0.77
relative viability (ChaGo-K-1; first compound 0.1265 µM): 0.503
relative viability (ChaGo-K-1; first compound 0.4 µM): 0.452
relative viability (ChaGo-K-1; first compound 1.265 µM): 0.322
relative viability (ChaGo-K-1; first compound 4 µM): 0.285
relative viability (HOP-62; first compound 0.04 µM): 0.867
relative viability (HOP-62; first compound 0.1265 µM): 0.824
relative viability (HOP-62; first compound 0.4 µM): 0.477
relative viability (HOP-62; first compound 1.265 µM): 0.309
relative viability (HOP-62; first compound 4 µM): 0.128
relative viability (NCI-H358; first compound 0.04 µM): 0.305
relative viability (NCI-H358; first compound 0.1265 µM): 0.398
relative viability (NCI-H358; first compound 0.4 µM): 0.401
relative viability (NCI-H358; first compound 1.265 µM): 0.385
relative viability (NCI-H358; first compound 4 µM): 0.27
relative viability (NCI-H3122; first compound 0.04 µM): 0.0811
relative viability (NCI-H3122; first compound 0.1265 µM): 0.0744
relative viability (NCI-H3122; first compound 0.4 µM): 0.162
relative viability (NCI-H3122; first compound 1.265 µM): 0.0911
relative viability (NCI-H3122; first compound 4 µM): 0.131
relative viability (NCI-H1915; first compound 0.04 µM): 0.56
relative viability (NCI-H1915; first compound 0.1265 µM): 0.668
relative viability (NCI-H1915; first compound 0.4 µM): 0.364
relative viability (NCI-H1915; first compound 1.265 µM): 0.32
relative viability (NCI-H1915; first compound 4 µM): 0.186
relative viability (NCI-H2126; first compound 0.04 µM): 0.968
relative viability (NCI-H2126; first compound 0.1265 µM): 0.767
relative viability (NCI-H2126; first compound 0.4 µM): 0.977
relative viability (NCI-H2126; first compound 1.265 µM): 0.864
relative viability (NCI-H2126; first compound 4 µM): 0.659
relative viability (NCI-H2023; first compound 0.04 µM): 0.731
relative viability (NCI-H2023; first compound 0.1265 µM): 0.67
relative viability (NCI-H2023; first compound 0.4 µM): 0.358
relative viability (NCI-H2023; first compound 1.265 µM): 0.107
relative viability (NCI-H2023; first compound 4 µM): 0.146
relative viability (NCI-H1666; first compound 0.04 µM): 1.03
relative viability (NCI-H1666; first compound 0.1265 µM): 0.916
relative viability (NCI-H1666; first compound 0.4 µM): 0.908
relative viability (NCI-H1666; first compound 1.265 µM): 0.669
relative viability (NCI-H1666; first compound 4 µM): 0.64
relative viability (UMC-11; first compound 0.04 µM): 0.865
relative viability (UMC-11; first compound 0.1265 µM): 0.83
relative viability (UMC-11; first compound 0.4 µM): 0.336
relative viability (UMC-11; first compound 1.265 µM): 0.278
relative viability (UMC-11; first compound 4 µM): 0.219
relative viability (EPLC-272H; first compound 0.04 µM): 0.451
relative viability (EPLC-272H; first compound 0.1265 µM): 0.332
relative viability (EPLC-272H; first compound 0.4 µM): 0.238
relative viability (EPLC-272H; first compound 1.265 µM): 0.179
relative viability (EPLC-272H; first compound 4 µM): 0.189
relative viability (NCI-H1975; first compound 0.04 µM): 0.212
relative viability (NCI-H1975; first compound 0.1265 µM): 0.137
relative viability (NCI-H1975; first compound 0.4 µM): 0.162
relative viability (NCI-H1975; first compound 1.265 µM): 0.206
relative viability (NCI-H1975; first compound 4 µM): 0.172
relative viability (ABC-1; first compound 0.04 µM): 0.612
relative viability (ABC-1; first compound 0.1265 µM): 0.286
relative viability (ABC-1; first compound 0.4 µM): 0.479
relative viability (ABC-1; first compound 1.265 µM): 0.192
relative viability (ABC-1; first compound 4 µM): 0.267
relative viability (COR-L 105; first compound 0.04 µM): 0.66
relative viability (COR-L 105; first compound 0.1265 µM): 0.49
relative viability (COR-L 105; first compound 0.4 µM): 0.369
relative viability (COR-L 105; first compound 1.265 µM): 0.239
relative viability (COR-L 105; first compound 4 µM): 0.206
relative viability (EMC-BAC-2; first compound 0.04 µM): 1.16
relative viability (EMC-BAC-2; first compound 0.1265 µM): 1.09
relative viability (EMC-BAC-2; first compound 0.4 µM): 0.925
relative viability (EMC-BAC-2; first compound 1.265 µM): 0.472
relative viability (EMC-BAC-2; first compound 4 µM): 0.477
relative viability (NCI-H1755; first compound 0.04 µM): 0.645
relative viability (NCI-H1755; first compound 0.1265 µM): 0.283
relative viability (NCI-H1755; first compound 0.4 µM): 0.539
relative viability (NCI-H1755; first compound 1.265 µM): 0.393
relative viability (NCI-H1755; first compound 4 µM): 0.442
relative viability (CAL-12T; first compound 0.04 µM): 0.364
relative viability (CAL-12T; first compound 0.1265 µM): 0.184
relative viability (CAL-12T; first compound 0.4 µM): 0.367
relative viability (CAL-12T; first compound 1.265 µM): 0.134
relative viability (CAL-12T; first compound 4 µM): 0.146
relative viability (NCI-H441; first compound 0.04 µM): 0.37
relative viability (NCI-H441; first compound 0.1265 µM): 0.501
relative viability (NCI-H441; first compound 0.4 µM): 0.419
relative viability (NCI-H441; first compound 1.265 µM): 0.253
relative viability (NCI-H441; first compound 4 µM): 0.235
relative viability (NCI-H2085; first compound 0.04 µM): 0.387
relative viability (NCI-H2085; first compound 0.1265 µM): 0.434
relative viability (NCI-H2085; first compound 0.4 µM): 0.386
relative viability (NCI-H2085; first compound 1.265 µM): 0.248
relative viability (NCI-H2085; first compound 4 µM): 0.182
relative viability (LXF-289; first compound 0.04 µM): 0.675
relative viability (LXF-289; first compound 0.1265 µM): 0.601
relative viability (LXF-289; first compound 0.4 µM): 0.597
relative viability (LXF-289; first compound 1.265 µM): 0.495
relative viability (LXF-289; first compound 4 µM): 0.541
relative viability (HCC-15; first compound 0.04 µM): 0.348
relative viability (HCC-15; first compound 0.4 µM): 0.45
relative viability (HCC-15; first compound 1.265 µM): 0.298
relative viability (HCC-15; first compound 4 µM): 0.216
